Data on 31 compounds can be found in patent US10696672B2 (Pliant Therapeutics, Inc., priority 2016, dated 2020).

A word on the IC50: it is the concentration needed to halve the response being measured.

SMILES strings stand for the structures. Bounds are passed on as bounds.

Chain of recombinant human integrin αvβ6 (P06756 31-992): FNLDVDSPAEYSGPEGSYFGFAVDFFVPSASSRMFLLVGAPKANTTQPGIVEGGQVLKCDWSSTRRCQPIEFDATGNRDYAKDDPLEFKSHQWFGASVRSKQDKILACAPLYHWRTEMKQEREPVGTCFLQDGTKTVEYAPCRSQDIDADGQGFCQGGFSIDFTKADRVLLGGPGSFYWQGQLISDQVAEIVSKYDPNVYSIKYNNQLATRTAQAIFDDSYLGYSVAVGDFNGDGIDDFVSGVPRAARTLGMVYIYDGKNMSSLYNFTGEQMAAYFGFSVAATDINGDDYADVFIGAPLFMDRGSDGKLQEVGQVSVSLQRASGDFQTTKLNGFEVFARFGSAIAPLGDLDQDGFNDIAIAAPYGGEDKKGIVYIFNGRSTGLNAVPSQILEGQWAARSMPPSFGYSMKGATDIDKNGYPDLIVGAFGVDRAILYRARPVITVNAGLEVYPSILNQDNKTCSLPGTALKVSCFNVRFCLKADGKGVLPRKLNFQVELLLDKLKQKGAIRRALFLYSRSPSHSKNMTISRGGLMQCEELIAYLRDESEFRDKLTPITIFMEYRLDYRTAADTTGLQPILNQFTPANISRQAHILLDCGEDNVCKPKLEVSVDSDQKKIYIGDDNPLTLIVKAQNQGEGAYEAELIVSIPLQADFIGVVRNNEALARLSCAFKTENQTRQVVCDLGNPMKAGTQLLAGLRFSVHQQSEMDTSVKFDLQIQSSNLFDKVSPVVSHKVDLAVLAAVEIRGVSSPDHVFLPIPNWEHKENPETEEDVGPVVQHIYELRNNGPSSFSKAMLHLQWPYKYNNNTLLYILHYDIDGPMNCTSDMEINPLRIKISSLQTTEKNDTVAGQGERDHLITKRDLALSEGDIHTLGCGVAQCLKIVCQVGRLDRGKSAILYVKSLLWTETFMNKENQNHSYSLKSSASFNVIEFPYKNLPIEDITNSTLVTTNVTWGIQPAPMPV
Chain of recombinant human integrin αvβ6 (P18564 22-707): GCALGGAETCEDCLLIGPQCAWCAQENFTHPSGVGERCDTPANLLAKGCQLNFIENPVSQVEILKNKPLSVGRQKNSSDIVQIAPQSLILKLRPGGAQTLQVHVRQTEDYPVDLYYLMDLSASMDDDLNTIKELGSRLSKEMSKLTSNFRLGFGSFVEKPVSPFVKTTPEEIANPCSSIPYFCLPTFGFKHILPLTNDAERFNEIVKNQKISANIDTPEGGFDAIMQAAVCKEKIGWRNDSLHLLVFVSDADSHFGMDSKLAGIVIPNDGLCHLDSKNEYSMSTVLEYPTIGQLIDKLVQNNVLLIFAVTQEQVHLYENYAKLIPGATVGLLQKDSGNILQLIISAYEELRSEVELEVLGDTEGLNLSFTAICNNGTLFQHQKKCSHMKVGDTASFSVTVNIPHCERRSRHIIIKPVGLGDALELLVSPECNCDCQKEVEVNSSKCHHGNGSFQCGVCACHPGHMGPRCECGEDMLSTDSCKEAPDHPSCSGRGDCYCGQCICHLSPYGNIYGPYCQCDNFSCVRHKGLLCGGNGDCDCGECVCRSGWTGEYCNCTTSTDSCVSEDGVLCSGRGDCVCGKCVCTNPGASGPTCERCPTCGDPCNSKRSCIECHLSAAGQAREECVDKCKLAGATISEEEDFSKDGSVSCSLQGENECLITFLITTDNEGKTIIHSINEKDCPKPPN

This experiment has as its target recombinant human integrin αvβ6 (Homo sapiens (Human), UniProt P06756+P18564). Nature of the experiment: Solid phase integrin αvβ6 binding assay. As to conditions: plate-coated integrin; recombinant TGFβ1 LAP 0.67 ug/ml as ligand; 2 hours at 25° C.; read-out: αvβ6 Inhibition IC50 (nM) - range. How it is done:
Example B1—Solid Phase Integrin αvβ6 Binding Assay
Microplates were coated with recombinant human integrin αvβ6 (2 ug/ml) in PBS (100 ul/well 25° C., overnight). The coating solution was removed, washed with wash buffer (0.05% Tween 20; 0.5 mM MnCl2; in 1×TBS). Plate was blocked with 200 ul/well of Block Buffer (1% BSA; 5% sucrose; 0.5 mM MnCl2; in 1×TBS) at 37° C. for 2 h. Dilutions of testing compounds and recombinant TGFβ1 LAP (0.67 ug/ml) in binding buffer (0.05% BSA; 2.5% sucrose; 0.5 mM MnCl2; in 1×TBS) were added. The plate was incubated for 2 hours at 25° C., washed, and incubated for 1 hour with Biotin-Anti-hLAP. Bound antibody was detected by peroxidase-conjugated streptavidin. The IC50 values for testing compounds were calculated by a four-parameter logistic regression.
The compounds tested were compound samples prepared according to procedures described in the Synthetic Examples section, with the stereochemical purity as indicated in the Examples indicated.
As to `O=C(NC(CCN1CC[C@@H](CCc2ccc3c(n2)NCCC3)C1)C(=O)O)c1ccccc1` (stereo partly shown) [3a and 3c], the concentration for half-maximal inhibition (IC50) is < 50 nM.

For the compound `Cc1cccc(C)c1C(=O)NC(CCN1CC[C@@H](CCc2ccc3c(n2)NCCC3)C1)C(=O)O` (stereo partly shown) [4a and 4c], the IC50 is < 50 nM.

`N#Cc1cc(Cl)c(C(=O)NC(CCN2CC[C@@H](CCc3ccc4c(n3)NCCC4)C2)C(=O)O)c(Cl)c1` (stereo partly shown) [7a and 7c]: the half-maximal inhibitory concentration (IC50) is < 50 nM.

`Cc1cc(C)n(-c2cccc(C(=O)NC(CCN3CC[C@@H](CCc4ccc5c(n4)NCCC5)C3)C(=O)O)c2)n1` (stereo partly shown) [13a and 13c]: the IC50 was < 50 nM.

As to `O=C(NC(CCN1CC[C@@H](CCc2ccc3c(n2)NCCC3)C1)C(=O)O)c1c(Cl)cncc1Cl` (stereo partly shown) [20a and 20c], the IC50 is < 50 nM.

Regarding `O=C(NC(CCN1CC[C@@H](CCc2ccc3c(n2)NCCC3)C1)C(=O)O)C1CCN(C2CC2)CC1` (stereo partly shown) [23a and 23c], the concentration for half-maximal inhibition (IC50) was 50 to 250 nM.

On to `O=C(NC(CCN1CC[C@@H](CCc2ccc3c(n2)NCCC3)C1)C(=O)O)c1ccc2ocnc2c1` (stereo partly shown) [31a and 31c], for which the IC50 was < 50 nM.

Take `CC(C)(C)C(=O)N[C@H](CCN1CC[C@@H](CCc2ccc3c(n2)NCCC3)C1)C(=O)O` [Compound 1c, (R)-2-pivalamido-4-((R)-3-(2-(5,6,7,8-tetrahydro-1,8-naphthyridin-2-yl)ethyl)pyrrolidin-1-yl)butanoic acid]: the IC50 is < 50 nM.

Regarding `CC(C)(C)OC(=O)N[C@@H](CCN1CC[C@@H](CCc2ccc3c(n2)NCCC3)C1)C(=O)O` [Compound 2a, (S)-2-((tert-butoxycarbonyl)amino)-4-((R)-3-(2-(5,6,7,8-tetrahydro-1,8-naphthyridin-2-yl)ethyl)pyrrolidin-1-yl)butanoic acid], the half-inhibitory concentration (IC50) is < 50 nM.

For the compound `O=C(N[C@@H](CCN1CC[C@@H](CCc2ccc3c(n2)NCCC3)C1)C(=O)O)c1cccc(F)c1Cl` [Compound 5a, (S)-2-(2-chloro-3-fluorobenzamido)-4-((R)-3-(2-(5,6,7,8-tetrahydro-1,8-naphthyridin-2-yl)ethyl)pyrrolidin-1-yl)butanoic acid], the concentration for half-maximal inhibition (IC50) was < 50 nM.

As to `O=C(N[C@@H](CCN1CC[C@@H](CCc2ccc3c(n2)NCCC3)C1)C(=O)O)c1c(Cl)cccc1Cl` [Compound 6a, (S)-2-(2,6-dichlorobenzamido)-4-((R)-3-(2-(5,6,7,8-tetrahydro-1,8-naphthyridin-2-yl)ethyl)pyrrolidin-1-yl)butanoic acid], the concentration for half-maximal inhibition (IC50) was < 50 nM.

`O=C(N[C@H](CCN1CC[C@@H](CCc2ccc3c(n2)NCCC3)C1)C(=O)O)c1c(Cl)cccc1Cl` [Compound 6c, (R)-2-(2,6-dichlorobenzamido)-4-((R)-3-(2-(5,6,7,8-tetrahydro-1,8-naphthyridin-2-yl)ethyl)pyrrolidin-1-yl)butanoic acid]: the IC50 is 250 to 1000 nM.

Regarding `O=C(N[C@@H](CCN1CC[C@@H](CCc2ccc3c(n2)NCCC3)C1)C(=O)O)c1ccccc1C(F)(F)F` [Compound 8a, (S)-4-((R)-3-(2-(5,6,7,8-tetrahydro-1,8-naphthyridin-2-yl)ethyl)pyrrolidin-1-yl)-2-(2-(trifluoromethyl)benzamido)butanoic acid], the IC50 is < 50 nM.

Take `O=C(N[C@@H](CCN1CC[C@@H](CCc2ccc3c(n2)NCCC3)C1)C(=O)O)c1cccc(C(F)(F)F)c1` [Compound 9a, (S)-4-((R)-3-(2-(5,6,7,8-tetrahydro-1,8-naphthyridin-2-yl)ethyl)pyrrolidin-1-yl)-2-(3-(trifluoromethyl)benzamido)butanoic acid]: the IC50 was < 50 nM.

`O=C(N[C@@H](CCN1CC[C@@H](CCc2ccc3c(n2)NCCC3)C1)C(=O)O)c1ccc(C(F)(F)F)cc1` [Compound 10a, (S)-4-((R)-3-(2-(5,6,7,8-tetrahydro-1,8-naphthyridin-2-yl)ethyl)pyrrolidin-1-yl)-2-(4-(trifluoromethyl)benzamido)butanoic acid]: the IC50 is < 50 nM.

`O=C(N[C@@H](CCN1CC[C@@H](CCc2ccc3c(n2)NCCC3)C1)C(=O)O)c1cc(OC(F)(F)F)ccc1Cl` [Compound 11a]: the IC50 is < 50 nM.

As to `Cc1cc(C)n(-c2cccc(C(=O)N[C@@H](CCN3CCC(CCc4ccc5c(n4)NCCC5)CC3)C(=O)O)c2)n1` [Compound 12a, (S)-2-(3-(3,5-dimethyl-1H-pyrazol-1-yl)benzamido)-4-(4-(2-(5,6,7,8-tetrahydro-1,8-naphthyridin-2-yl)ethyl)piperidin-1-yl)butanoic acid], the IC50 is > 1000 nM.

`Cc1cc(C)n(-c2cccc(C(=O)N[C@@H](CCN3CC[C@@H](CCc4ccc5c(n4)NCCC5)C3)C(=O)O)c2)n1` [Compound 13a, (S)-2-(3-(3,5-dimethyl-1H-pyrazol-1-yl)benzamido)-4-((R)-3-(2-(5,6,7,8-tetrahydro-1,8-naphthyridin-2-yl)ethyl)pyrrolidin-1-yl)butanoic acid]: the 50% inhibitory concentration (IC50) is < 50 nM.

In the case of `Cc1cc(C)n(-c2cccc(C(=O)N[C@H](CCN3CC[C@@H](CCc4ccc5c(n4)NCCC5)C3)C(=O)O)c2)n1` [Compound 13c, (R)-2-(3-(3,5-dimethyl-1H-pyrazol-1-yl)benzamido)-4-((R)-3-(2-(5,6,7,8-tetrahydro-1,8-naphthyridin-2-yl)ethyl)pyrrolidin-1-yl)butanoic acid], the half-maximal inhibitory concentration (IC50) is < 50 nM.

With `O=C(N[C@@H](CCN1CC[C@@H](CCc2ccc3c(n2)NCCC3)C1)C(=O)O)c1ccccc1N1CCOCC1` [Compound 14a, (S)-2-(2-morpholinobenzamido)-4-((R)-3-(2-(5,6,7,8-tetrahydro-1,8-naphthyridin-2-yl)ethyl)pyrrolidin-1-yl)butanoic acid], the IC50 fell in the range of 50 to 250 nM.

On to `O=C(N[C@@H](CCN1CC[C@@H](CCc2ccc3c(n2)NCCC3)C1)C(=O)O)c1cccc(N2CCOCC2)c1` [Compound 15a, (S)-2-(3-morpholinobenzamido)-4-((R)-3-(2-(5,6,7,8-tetrahydro-1,8-naphthyridin-2-yl)ethyl)pyrrolidin-1-yl)butanoic acid], for which the concentration for half-maximal inhibition (IC50) was < 50 nM.

For the compound `O=C(N[C@@H](CCN1CC[C@@H](CCc2ccc3c(n2)NCCC3)C1)C(=O)O)c1ccc(N2CCOCC2)cc1` [Compound 16a, (S)-2-(4-morpholinobenzamido)-4-((R)-3-(2-(5,6,7,8-tetrahydro-1,8-naphthyridin-2-yl)ethyl)pyrrolidin-1-yl)butanoic acid], the IC50 was > 1000 nM.

In the case of `O=C(N[C@@H](CCN1CC[C@@H](CCc2ccc3c(n2)NCCC3)C1)C(=O)O)c1ccccn1` [Compound 17a, (S)-2-(picolinamido)-4-((R)-3-(2-(5,6,7,8-tetrahydro-1,8-naphthyridin-2-yl)ethyl)pyrrolidin-1-yl)butanoic acid], the IC50 was 50 to 250 nM.

Regarding `O=C(N[C@@H](CCN1CC[C@@H](CCc2ccc3c(n2)NCCC3)C1)C(=O)O)c1ccncc1` [Compound 18a, (S)-2-(isonicotinamido)-4-((R)-3-(2-(5,6,7,8-tetrahydro-1,8-naphthyridin-2-yl)ethyl)pyrrolidin-1-yl)butanoic acid], the IC50 was < 50 nM.

On to `O=C(N[C@@H](CCN1CC[C@@H](CCc2ccc3c(n2)NCCC3)C1)C(=O)O)c1cccnc1` [Compound 19a, (S)-2-(nicotinamido)-4-((R)-3-(2-(5,6,7,8-tetrahydro-1,8-naphthyridin-2-yl)ethyl)pyrrolidin-1-yl)butanoic acid], for which the 50% inhibitory concentration (IC50) was in the range of 50 to 250 nM.

Turning to `O=C(N[C@@H](CCN1CC[C@@H](CCc2ccc3c(n2)NCCC3)C1)C(=O)O)C1CCC(F)(F)CC1` [Compound 21a, (S)-2-(4,4-difluorocyclohexane-1-carboxamido)-4-((R)-3-(2-(5,6,7,8-tetrahydro-1,8-naphthyridin-2-yl)ethyl)pyrrolidin-1-yl)butanoic acid], the IC50 is < 50 nM.

For `O=C(N[C@H](CCN1CC[C@@H](CCc2ccc3c(n2)NCCC3)C1)C(=O)O)C1CCC(F)(F)CC1` [Compound 21c, (R)-2-(4,4-difluorocyclohexane-1-carboxamido)-4-((R)-3-(2-(5,6,7,8-tetrahydro-1,8-naphthyridin-2-yl)ethyl)pyrrolidin-1-yl)butanoic acid], the 50% inhibitory concentration (IC50) was < 50 nM.

For `CC1(C(=O)N[C@@H](CCN2CC[C@@H](CCc3ccc4c(n3)NCCC4)C2)C(=O)O)CCOCC1` [Compound 22a, (S)-2-(4-methyltetrahydro-2H-pyran-4-carboxamido)-4-((R)-3-(2-(5,6,7,8-tetrahydro-1,8-naphthyridin-2-yl)ethyl)pyrrolidin-1-yl)butanoic acid], the IC50 fell in the range of 50 to 250 nM.

As for `Cn1ncc2ccc(C(=O)N[C@@H](CCN3CC[C@@H](CCc4ccc5c(n4)NCCC5)C3)C(=O)O)cc21` [Compound 24a, (S)-2-(1-methyl-1H-indazole-6-carboxamido)-4-((R)-3-(2-(5,6,7,8-tetrahydro-1,8-naphthyridin-2-yl)ethyl)pyrrolidin-1-yl)butanoic acid], the concentration for half-maximal inhibition (IC50) was < 50 nM.

For `Cn1ncc2cc(C(=O)N[C@@H](CCN3CC[C@@H](CCc4ccc5c(n4)NCCC5)C3)C(=O)O)ccc21` [Compound 25a, (S)-2-(1-methyl-1H-indazole-5-carboxamido)-4-((R)-3-(2-(5,6,7,8-tetrahydro-1,8-naphthyridin-2-yl)ethyl)pyrrolidin-1-yl)butanoic acid], the IC50 lay in the range of 50 to 250 nM.

Regarding `O=C(N[C@@H](CCN1CC[C@@H](CCc2ccc3c(n2)NCCC3)C1)C(=O)O)c1cccc2cn[nH]c12` [Compound 26a, (S)-2-(1H-indazole-7-carboxamido)-4-((R)-3-(2-(5,6,7,8-tetrahydro-1,8-naphthyridin-2-yl)ethyl)pyrrolidin-1-yl)butanoic acid], the 50% inhibitory concentration (IC50) was < 50 nM.
